Experimental data from ChEMBL document CHEMBL3217479, “Overcoming retinoic acid receptor- based testicular toxicity in the optimisation of glucokinase activators” (Medchemcomm, 2011).
Values after ≈ are worked out from the molar mass of the structure shown.

Key:
[1] = Solubility of the compound; format: physicochemical
[2] = Lipophilicity, log D of the compound; format: physicochemical; details: octanol/water
[3] = Apparent permeability from apical to basolateral side of human Caco2 cells; format: ADME, cell-based; details: Caco-2
[4] = Toxicity in testis (unknown origin); format: tissue-based
[5] = target: T1, Retinoic acid receptor alpha (Homo sapiens, UniProt P10276); assay: Inhibition of RAR alpha (unknown origin)
T1 sequence (P10276 whole entry): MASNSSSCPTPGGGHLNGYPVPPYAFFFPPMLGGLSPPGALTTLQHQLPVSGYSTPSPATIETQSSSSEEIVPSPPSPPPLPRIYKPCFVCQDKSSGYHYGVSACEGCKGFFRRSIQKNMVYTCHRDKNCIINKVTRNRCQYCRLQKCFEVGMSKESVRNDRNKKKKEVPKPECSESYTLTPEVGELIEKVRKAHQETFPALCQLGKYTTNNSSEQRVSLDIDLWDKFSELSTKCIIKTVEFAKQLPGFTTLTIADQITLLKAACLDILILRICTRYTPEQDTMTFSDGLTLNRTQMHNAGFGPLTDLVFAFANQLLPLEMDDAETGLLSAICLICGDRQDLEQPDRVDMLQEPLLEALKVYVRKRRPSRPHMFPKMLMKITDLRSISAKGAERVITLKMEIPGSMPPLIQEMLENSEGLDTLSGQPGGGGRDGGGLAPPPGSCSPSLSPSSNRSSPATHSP

[6] = target: T2, Retinoic acid receptor beta (Homo sapiens, UniProt P10826); assay: Inhibition of RAR beta (unknown origin)
T2 sequence (P10826 whole entry): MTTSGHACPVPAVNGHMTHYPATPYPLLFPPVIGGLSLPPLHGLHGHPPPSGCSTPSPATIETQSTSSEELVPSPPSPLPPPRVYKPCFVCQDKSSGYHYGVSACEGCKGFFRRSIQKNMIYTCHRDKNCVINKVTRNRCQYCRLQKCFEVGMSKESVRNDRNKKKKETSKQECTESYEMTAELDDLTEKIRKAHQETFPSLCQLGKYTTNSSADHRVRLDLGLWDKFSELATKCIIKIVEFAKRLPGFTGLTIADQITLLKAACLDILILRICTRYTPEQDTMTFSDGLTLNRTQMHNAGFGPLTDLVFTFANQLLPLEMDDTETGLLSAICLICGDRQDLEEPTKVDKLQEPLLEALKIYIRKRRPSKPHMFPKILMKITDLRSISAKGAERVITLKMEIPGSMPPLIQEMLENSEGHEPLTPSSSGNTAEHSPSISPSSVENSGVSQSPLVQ

[7] = target: T3, Retinoic acid receptor gamma (Homo sapiens, UniProt P13631); assay: Inhibition of RAR gamma (unknown origin)
T3 sequence (P13631 whole entry): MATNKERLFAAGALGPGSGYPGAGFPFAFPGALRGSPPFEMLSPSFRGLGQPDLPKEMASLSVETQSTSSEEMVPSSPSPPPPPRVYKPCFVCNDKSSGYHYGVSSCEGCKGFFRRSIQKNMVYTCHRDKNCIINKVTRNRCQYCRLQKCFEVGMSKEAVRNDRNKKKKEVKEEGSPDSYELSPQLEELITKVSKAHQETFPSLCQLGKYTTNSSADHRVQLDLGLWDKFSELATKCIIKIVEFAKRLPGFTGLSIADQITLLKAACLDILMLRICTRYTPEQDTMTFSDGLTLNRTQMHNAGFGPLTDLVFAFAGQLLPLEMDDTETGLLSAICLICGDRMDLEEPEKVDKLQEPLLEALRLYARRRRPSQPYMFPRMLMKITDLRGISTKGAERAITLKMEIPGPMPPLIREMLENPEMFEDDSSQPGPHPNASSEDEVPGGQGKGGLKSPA

Hexokinase-4 = target: T4, Hexokinase-4 (Homo sapiens, UniProt P35557); assay: Activation of glucokinase (unknown origin)
T4 sequence (P35557 whole entry): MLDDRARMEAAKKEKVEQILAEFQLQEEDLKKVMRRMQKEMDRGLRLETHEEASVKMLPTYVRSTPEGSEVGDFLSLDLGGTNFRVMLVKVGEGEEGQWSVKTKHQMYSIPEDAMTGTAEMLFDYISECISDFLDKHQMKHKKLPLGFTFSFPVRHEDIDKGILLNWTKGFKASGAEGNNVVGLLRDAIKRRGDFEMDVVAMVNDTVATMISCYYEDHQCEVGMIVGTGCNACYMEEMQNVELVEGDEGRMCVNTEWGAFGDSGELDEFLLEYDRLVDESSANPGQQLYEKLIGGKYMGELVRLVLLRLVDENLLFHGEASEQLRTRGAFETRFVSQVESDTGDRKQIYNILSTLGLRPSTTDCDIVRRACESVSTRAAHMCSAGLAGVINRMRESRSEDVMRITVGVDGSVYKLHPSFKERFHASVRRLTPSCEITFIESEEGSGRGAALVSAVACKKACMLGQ

Rattus norvegicus [8] = assay: Antidiabetic activity in rat assessed as reduction of glucose AUC at 10 mg/kg by oral glucose tolerance test; format: functional
[9] = target: Voltage-gated inwardly rectifying potassium channel KCNH2 (Homo sapiens, UniProt Q12809)
Sequence of Voltage-gated inwardly rectifying potassium channel KCNH2 (Q12809 whole entry): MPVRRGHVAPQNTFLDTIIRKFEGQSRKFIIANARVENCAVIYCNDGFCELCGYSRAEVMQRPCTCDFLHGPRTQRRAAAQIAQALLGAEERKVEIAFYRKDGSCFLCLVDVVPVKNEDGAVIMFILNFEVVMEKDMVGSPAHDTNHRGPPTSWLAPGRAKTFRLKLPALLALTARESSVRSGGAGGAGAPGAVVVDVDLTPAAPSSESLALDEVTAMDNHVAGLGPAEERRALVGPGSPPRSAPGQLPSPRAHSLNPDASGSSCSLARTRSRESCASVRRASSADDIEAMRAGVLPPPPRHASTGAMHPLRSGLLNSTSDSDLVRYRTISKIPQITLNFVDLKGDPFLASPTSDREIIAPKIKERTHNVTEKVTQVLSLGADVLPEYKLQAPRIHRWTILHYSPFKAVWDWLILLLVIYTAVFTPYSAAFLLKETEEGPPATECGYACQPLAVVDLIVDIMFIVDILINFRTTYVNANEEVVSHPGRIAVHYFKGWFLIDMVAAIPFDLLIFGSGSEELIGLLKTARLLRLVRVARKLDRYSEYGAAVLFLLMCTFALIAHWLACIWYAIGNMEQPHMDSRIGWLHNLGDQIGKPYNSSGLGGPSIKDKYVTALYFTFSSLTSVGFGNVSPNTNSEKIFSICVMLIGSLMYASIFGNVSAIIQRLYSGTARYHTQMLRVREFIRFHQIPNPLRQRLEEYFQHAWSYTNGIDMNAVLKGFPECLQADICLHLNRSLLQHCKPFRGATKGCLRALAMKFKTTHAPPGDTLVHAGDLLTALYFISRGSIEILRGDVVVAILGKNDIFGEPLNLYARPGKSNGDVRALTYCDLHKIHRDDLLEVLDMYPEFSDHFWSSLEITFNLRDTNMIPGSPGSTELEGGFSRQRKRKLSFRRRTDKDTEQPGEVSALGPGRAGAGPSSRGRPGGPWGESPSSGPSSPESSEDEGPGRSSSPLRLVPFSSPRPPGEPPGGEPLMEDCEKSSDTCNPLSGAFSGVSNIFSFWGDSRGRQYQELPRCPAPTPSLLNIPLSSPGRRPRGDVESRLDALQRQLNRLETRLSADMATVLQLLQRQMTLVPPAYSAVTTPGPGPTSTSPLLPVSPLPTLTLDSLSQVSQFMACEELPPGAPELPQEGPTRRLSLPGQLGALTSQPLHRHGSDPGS

Rattus norvegicus [10] = assay: Antidiabetic activity in rat assessed as reduction of glucose AUC at 3 mg/kg by oral glucose tolerance test; format: functional

solubility [1]	logD [2]	Papp A→B [3]	IC50 [5]	IC50 [6]	IC50 [7]	EC50 (Hexokinase-4)	SMILES	Activity [4]	inhibition in vivo at 10 mg/kg (Rattus norvegicus [8])	IC50 [9]	inhibition in vivo at 3 mg/kg (Rattus norvegicus [10])
> 3000 µM	-0.4	0.3 ×10⁻⁶ cm/s	–	–	–	–	COC[C@H](C)Oc1cc(Oc2ccc(S(C)(=O)=O)cc2)cc(C(=O)Nc2ccc(C(=O)O)cn2)c1	–	–	–	–
805 µM (≈ 369 µg/mL)	1.4	7.4 ×10⁻⁶ cm/s	< 0.001 µM	< 0.001 µM	19 µM	–	COC[C@H](C)Oc1cc(Oc2cc(F)cc(F)c2)cc(C(=O)Nc2ccc(C(=O)O)cn2)c1	Toxic	–	–	–
20 µM (≈ 9.25 µg/mL)	3.2	54 ×10⁻⁶ cm/s	> 30 µM	–	–	0.06 µM	COC[C@H](C)Oc1cc(Oc2ccc(S(C)(=O)=O)cc2)cc(C(=O)Nc2nccs2)c1	Non-toxic	29%	–	–

More lines, now with the values behind:

SMILES	solubility [1]	logD [2]	Papp A→B [3]	IC50 [5]	IC50 [6]	IC50 [7]	EC50 (Hexokinase-4)	Activity [4]	inhibition in vivo at 10 mg/kg (Rattus norvegicus [8])	IC50 [9]	inhibition in vivo at 3 mg/kg (Rattus norvegicus [10])
COC[C@H](C)Oc1cc(O[C@@H](C)Cc2ccccc2)cc(C(=O)Nc2ccc(C(=O)O)cn2)c1	–	–	–	0.47 µM	32 µM	> 1000 µM	–	Toxic	–	–	–
COC[C@H](C)Oc1cc(Oc2cc(F)cc(F)c2)cc(C(=O)Nc2nccs2)c1	< 0.7 µM	4.1	–	–	–	–	0.07 µM	–	–	–	–
COC[C@H](C)Oc1cc(Oc2ccc(S(C)(=O)=O)cc2)cc(C(=O)Nc2nc(C)ns2)c1	129 µM (≈ 61.6 µg/mL)	2.9	29 ×10⁻⁶ cm/s	> 30 µM	–	–	0.11 µM	Non-toxic	–	7.5 µM	27%
O=C(O)c1ccc(NC(=O)c2cc(OCc3ccccc3F)cc(OCc3ccccc3F)c2)nc1	–	–	–	0.0111 µM	0.007 µM	1.2 µM	–	Toxic	–	–	–
CC(C)COc1cc(OC(C)C)cc(C(=O)Nc2ccc(C(=O)O)cn2)c1	–	–	–	0.01 µM	0.135 µM	22 µM	–	Toxic	–	–	–
